From patent US5763483A, “Carbocyclic compounds” (priority 1996, dated 1998)

Target: neuraminidase
Test: Enzyme Inhibition (in vitro neuraminidase screen)
Assay type: biochemical
Excerpt: Compositions of the invention are screened for inhibitory activity against neuraminidase by any of the conventional techniques for evaluating enzyme activity. Within the context of the invention, typically compositions are first screened for inhibition of neuraminidase in vitro and compositions showing inhibitory activity are then screened for activity in vivo. Compositions having in vitro Ki (inhibitory constants) of less then about 5×10^-6 M, typically less than about 1×10^-7 M and preferably less than about 5×10^-8 M are preferred for in vivo use.
Useful in vitro screens have been described in detail and will not be elaborated here. However, Itzstein, M. von et al.; "Nature", 363(6428):418-423 (1993), in particular page 420, column 2, full paragraph 3, to page 421, column 2, first partial paragraph, describes a suitable in vitro assay of Potier, M.; et al.; "Analyt. Biochem.", 94:287-296 (1979), as modified by Chong, A. K. J.; et al.; "Biochem. Biophys. Acta", 1077:65-71 (1991); and Colman, P. M.; et al.; International Publication No. WO 92/06691 (Int. App. No. PCT/AU90/00501, publication date Apr. 30, 1992) page 34, line 13, to page 35, line 16, describes another useful in vitro screen.
Enzyme Inhibition: Using the methods of screening in vitro activity described above, the following activities were observed (+10-100 μm, ++1-10 μm, +++<1.0 μm): […]

SMILES	IC50 [nM]
CC(=O)N[C@@H]1[C@@H](N)CC(C(=O)O)=C[C@H]1OCC(O)CO (stereo partly drawn) [Compound 8]	1000 to 10000
CC(=O)N[C@H]1[C@H](O)C=C(C(=O)O)C[C@@H]1NC(=N)N [Compound 94]	< 1000
COCO[C@@H]1C=C(C(=O)O)C[C@H](N)[C@H]1NC(C)=O [Compound 114]	1000 to 10000
